Source: patent publication US9067894B1, “Compound, composition, and method of activating GIRK potassium channel and use of same for treating conditions of interest” (Vanderbilt University, priority 2013, dated 2015)
“Also recorded” adds a separate entry of the source. Where two headings read alike, the source gives them in different places.

Experiments:
Dopamine D3 = molecular target: T1, Dopamine D3 (Homo sapiens, UniProt P35462); test: Radioligand displacement (Ricerca); type: binding
T1 construct: Ricerca

Adrenergic α1A = molecular target: T2, Adrenergic α1A (Rattus norvegicus, UniProt P43140); test: Radioligand displacement (Ricerca); type: binding
T2 construct: Ricerca (contract assay)

Purinergic P2Y = test: Radioligand displacement (Ricerca); type: binding, rat; settings: 10 μM
Serotonin 5-HT3 = molecular target: T3, Serotonin 5-HT3 (Homo sapiens, UniProt P46098); test: Radioligand displacement (Ricerca); type: binding
T3 construct: Ricerca (contract panel)

[1] = Home cage locomotor activity (SmartCage); type: in vivo, mouse; settings: mice, 60 mg/kg i.p., 24 hours after injection
Procedure: The SmartCageTM system ([…], Inc., Burlingame, Calif.) was used to assess compound effects on spontaneous homecage activity. Automated data analysis was performed using CageScoreTM software ([…], Inc.). The home cage activity was determined by beam breaks (x, y, and z photo-beam break counts). Distance traveled in centimeters was obtained from the lower horizontal sensors (x and y) taking into account the path taken. Average velocity was distance traveled/second in the forward direction, averaged over the block time (bin). Mice (male C57/BL6, 8-10 months old, approximately 30 g) mice were assessed continuously for 72 hours. The first 24 hours was used as a habituation period. The locomotion data obtained from the second 24 hours served as the baseline data for each mouse. […] After receiving their respective treatments, each mouse's locomotor activity was monitored over the 24 hours to assess recovery from drug effects.

Muscarinic M1 = molecular target: T4, Muscarinic M1 (Homo sapiens, UniProt P11229); test: Radioligand displacement (Ricerca); type: binding
T4 construct: Ricerca (contract laboratory that ran the panel)

[2] = In vivo pharmacokinetic study, IP in mice; settings: mouse, intraperitoneal 10 mg/kg
Procedure: In Vivo Pharmacokinetic Study. Compound(s) were formulated in 10% Tween80 in sterile water at the concentration of 3.33 mg/mL and administered IP to male C57 BL6 mice weighing 20 to 25 g (Harlan, Indianapolis, Ind.) at the dose of 10 mg/kg. The blood (cardiac puncture) and brain were collected at 0.5, 1, 3, and 6 hr. Animals were euthanized and decapitated, and the brains were removed, thoroughly washed in cold phosphate-buffered saline, and immediately frozen on dry ice. Plasma was separated by centrifugation (4000 rcf, 4° C.) and stored at −80° C. until analysis. On the day of analysis, frozen whole-[…] brains were weighed and diluted with 1:3 (w/w) parts of 70:30 isopropanol:water. The mixture was then subjected to mechanical homogenation employing a Mini-Beadbeater™ and 1.0 mm Zirconia/Silica Beads (BioSpec Products) followed by centrifugation. The sample extraction of plasma (20 μL) or brain homogenate (20 μL) was performed by a method based on protein precipitation using three volumes of ice-cold acetonitrile containing an internal standard (50 ng/mL carbamazepine). The samples were centrifuged (3000 rcf, 5 min) and supernatants transferred and diluted 1:1 (supernatant: water) into a new 96 well plate, which was then sealed in preparation for LC/MS/MS analysis.
LC/MS/MS Bioanalysis of Samples from In Vivo Studies. In vivo samples were analyzed via electrospray ionization (ESI) on an AB Sciex QTrap 5500 (Foster City, Calif.) triple-quadrupole linear ion trap instrument that was coupled with Shimadzu LC-20AD pumps (Columbia, Md.) and a Leap Technologies CTC PAL auto-sampler (Carrboro, N.C.). Analytes were separated by gradient elution using a Fortis C18 2.1×50 mm, 3 μm column (Fortis Technologies Ltd, Cheshire, UK) at 40° C. HPLC mobile phase A was 0.1% formic acid in water (pH unadjusted), mobile phase B was 0.1% formic acid in acetonitrile (pH unadjusted). […] The total run time was 2.5 min and the HPLC flow rate was 0.5 mL/min. The source temperature was set at 500° C. and mass spectral analyses were performed using multiple reaction monitoring (MRM), with transitions specific for each compound utilizing a Turbo-Ionspray® source in positive ionization mode (5.0 kV spray voltage). The calibration curves were constructed, and linear response was obtained in the range of 0.5 to 5,000 ng/mL, by spiking known amounts of […] in blank brain homogenate or plasma. All data were analyzed using AB Sciex Analyst software v1.5.1. The final PK parameters were calculated by noncompartmental analysis using Phoenix (version 6.2) (Pharsight Inc., Mountain View, Calif.).

Serotonin 5-HT2B = molecular target: T5, Serotonin 5-HT2B (Homo sapiens, UniProt P41595); test: Radioligand displacement (Ricerca); type: binding
T5 construct: Ricerca (contract panel)
T5 sequence (P41595 whole entry): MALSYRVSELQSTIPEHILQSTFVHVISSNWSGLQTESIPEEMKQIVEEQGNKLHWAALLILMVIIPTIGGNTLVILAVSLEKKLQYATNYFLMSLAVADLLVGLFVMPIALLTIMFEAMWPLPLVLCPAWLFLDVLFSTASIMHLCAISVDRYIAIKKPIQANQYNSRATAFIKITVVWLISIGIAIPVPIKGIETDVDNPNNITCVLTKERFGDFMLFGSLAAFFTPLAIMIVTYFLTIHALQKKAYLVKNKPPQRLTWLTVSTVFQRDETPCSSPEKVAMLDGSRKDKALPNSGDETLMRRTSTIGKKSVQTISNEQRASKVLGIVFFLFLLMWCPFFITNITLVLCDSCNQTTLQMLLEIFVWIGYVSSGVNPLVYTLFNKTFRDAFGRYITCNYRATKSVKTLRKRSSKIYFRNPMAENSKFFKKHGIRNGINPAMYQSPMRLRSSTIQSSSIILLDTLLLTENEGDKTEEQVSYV

T3 sequence (P46098 24-478): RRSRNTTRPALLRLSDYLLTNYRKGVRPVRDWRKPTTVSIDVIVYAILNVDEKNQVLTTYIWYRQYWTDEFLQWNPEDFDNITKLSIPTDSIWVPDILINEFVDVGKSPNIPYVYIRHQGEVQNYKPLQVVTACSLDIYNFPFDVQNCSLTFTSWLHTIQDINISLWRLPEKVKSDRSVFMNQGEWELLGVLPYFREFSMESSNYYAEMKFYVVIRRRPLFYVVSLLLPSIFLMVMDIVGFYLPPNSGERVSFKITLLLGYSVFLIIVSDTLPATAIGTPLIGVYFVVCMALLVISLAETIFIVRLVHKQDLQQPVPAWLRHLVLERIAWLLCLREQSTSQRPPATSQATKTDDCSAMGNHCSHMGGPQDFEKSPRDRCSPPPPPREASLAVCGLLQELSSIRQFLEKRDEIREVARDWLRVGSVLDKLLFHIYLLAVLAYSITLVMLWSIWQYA
T2 sequence (P43140 whole entry): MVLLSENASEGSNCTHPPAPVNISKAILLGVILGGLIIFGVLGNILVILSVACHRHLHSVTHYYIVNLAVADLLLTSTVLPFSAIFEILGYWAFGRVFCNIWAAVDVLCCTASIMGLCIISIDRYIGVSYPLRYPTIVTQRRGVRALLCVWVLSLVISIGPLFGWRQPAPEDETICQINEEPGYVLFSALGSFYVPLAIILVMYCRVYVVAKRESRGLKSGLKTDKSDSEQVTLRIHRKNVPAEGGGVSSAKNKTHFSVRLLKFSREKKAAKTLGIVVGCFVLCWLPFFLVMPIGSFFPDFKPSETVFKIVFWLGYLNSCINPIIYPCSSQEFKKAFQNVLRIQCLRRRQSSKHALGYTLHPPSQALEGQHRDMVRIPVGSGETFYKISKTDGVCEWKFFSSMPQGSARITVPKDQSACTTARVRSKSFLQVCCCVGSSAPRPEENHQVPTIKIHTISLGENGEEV
T1 sequence (P35462 whole entry): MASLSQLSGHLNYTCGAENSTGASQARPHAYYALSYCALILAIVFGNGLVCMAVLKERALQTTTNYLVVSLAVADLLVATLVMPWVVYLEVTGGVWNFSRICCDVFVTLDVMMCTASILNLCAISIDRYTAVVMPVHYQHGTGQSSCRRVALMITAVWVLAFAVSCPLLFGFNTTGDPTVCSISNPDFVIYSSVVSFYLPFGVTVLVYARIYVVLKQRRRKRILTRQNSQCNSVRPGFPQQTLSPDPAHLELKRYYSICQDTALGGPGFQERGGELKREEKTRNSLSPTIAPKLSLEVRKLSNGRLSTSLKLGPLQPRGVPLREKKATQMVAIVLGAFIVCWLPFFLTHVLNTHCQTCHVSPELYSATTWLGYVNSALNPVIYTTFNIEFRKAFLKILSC
T4 sequence (P11229 whole entry): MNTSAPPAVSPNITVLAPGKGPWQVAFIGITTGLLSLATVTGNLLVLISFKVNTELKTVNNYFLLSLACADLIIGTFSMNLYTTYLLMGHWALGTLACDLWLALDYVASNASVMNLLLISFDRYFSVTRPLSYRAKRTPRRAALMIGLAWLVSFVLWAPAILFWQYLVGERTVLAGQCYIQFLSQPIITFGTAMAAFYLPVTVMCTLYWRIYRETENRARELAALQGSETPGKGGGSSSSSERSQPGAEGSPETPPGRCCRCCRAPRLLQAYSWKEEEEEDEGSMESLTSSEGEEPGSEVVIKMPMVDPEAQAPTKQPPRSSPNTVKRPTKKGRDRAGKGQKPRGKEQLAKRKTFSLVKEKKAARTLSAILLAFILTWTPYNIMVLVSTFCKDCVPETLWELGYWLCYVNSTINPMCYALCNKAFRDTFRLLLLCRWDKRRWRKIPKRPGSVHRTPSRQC

In the case of `Cc1cc(NC(=O)Nc2ccc(F)c(F)c2)n(-c2ccccc2)n1` [VU0456810, 1-(3,4-difluorophenyl)-3-(3-methyl-1-phenyl-1H-pyrazol-5-yl)urea], the inhibition at 10 µM (Dopamine D3) is reported as 2%, the inhibition at 10 µM (Adrenergic α1A) is reported as 4% and the “% Inhibition” value (Purinergic P2Y) is reported as 4%. The inhibition at 10 µM (Serotonin 5-HT3) was 1%, the “locomotor activity in home cage vs vehicle” value [1] was “overall decrease in locomotor activity; also recorded: decreased” and the inhibition at 10 µM (Muscarinic M1) was 0%. For the same molecule, the Kp at 0.5 h ([2]; male, C57 BL6, brain/plasma, ip, 30 min after administration) was 0.2, the concentration at 30 min ([2]; male, C57 BL6, brain, 30 min after administration, read-out: Brain concentration) was 500 nM and the half-life ([2]; male, C57 BL6, plasma, ip) was 20 min. The concentration at 30 min ([2]; male, C57 BL6, plasma, 30 min after administration, read-out: Plasma concentration) was 2300 nM, the Plasma concentration ([2]; 30 min after administration) was 2300 nM and the concentration at 30 min ([2]; 30 min after administration, read-out: Brain concentration) was 500 nM. The inhibition at 10 µM (Serotonin 5-HT2B) was < 50% and the “% Inhibition” value (Serotonin 5-HT2B; 10 μM) was 46%.
